# How the values were obtained:
# [1] = molecular target: T1, Protein mono-ADP-ribosyltransferase TIPARP (Homo sapiens, UniProt Q7Z3E1); assay: Inhibition of human recombinant N-terminal FLAG tagged PARP7 (400 to 657 end residues) incubated for 1 hr by ELISA assay
# T1 sequence (Q7Z3E1 whole entry): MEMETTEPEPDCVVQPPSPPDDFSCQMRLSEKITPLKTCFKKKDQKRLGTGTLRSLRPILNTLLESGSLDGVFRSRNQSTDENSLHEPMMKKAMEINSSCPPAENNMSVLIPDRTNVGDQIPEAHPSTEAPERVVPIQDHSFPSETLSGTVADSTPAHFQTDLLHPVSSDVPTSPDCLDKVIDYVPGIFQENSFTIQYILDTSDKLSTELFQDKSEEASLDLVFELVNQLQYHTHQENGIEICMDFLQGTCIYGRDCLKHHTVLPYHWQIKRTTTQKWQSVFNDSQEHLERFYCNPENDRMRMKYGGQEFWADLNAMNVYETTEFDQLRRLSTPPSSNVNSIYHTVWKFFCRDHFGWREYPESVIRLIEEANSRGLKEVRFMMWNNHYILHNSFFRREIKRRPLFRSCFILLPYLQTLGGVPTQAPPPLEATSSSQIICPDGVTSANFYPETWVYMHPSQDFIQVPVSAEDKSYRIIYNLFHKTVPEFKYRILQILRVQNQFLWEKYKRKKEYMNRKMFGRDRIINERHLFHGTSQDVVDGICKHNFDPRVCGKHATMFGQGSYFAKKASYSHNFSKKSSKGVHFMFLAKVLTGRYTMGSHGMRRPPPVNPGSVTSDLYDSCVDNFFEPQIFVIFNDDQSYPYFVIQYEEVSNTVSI
# [2] = molecular target: T2, Protein mono-ADP-ribosyltransferase TIPARP (Homo sapiens) (UniProt Q7Z3E1); assay: Inhibition of human recombinant N-terminal FLAG tagged PARP7 (400 to 657 end residues) at 100 nM incubated for 1 hr by ELISA assay relative to control
# T2 sequence (whole entry): T1 sequence (Q7Z3E1 whole entry)
# [3] = molecular target: Poly [ADP-ribose] polymerase 1 (Homo sapiens, UniProt P09874); assay: Inhibition of human recombinant N-terminal GST-tagged PARP1 (2 to 1014 end residues) incubated for 1 hr by ELISA assay
# Poly [ADP-ribose] polymerase 1, sequence (P09874 whole entry): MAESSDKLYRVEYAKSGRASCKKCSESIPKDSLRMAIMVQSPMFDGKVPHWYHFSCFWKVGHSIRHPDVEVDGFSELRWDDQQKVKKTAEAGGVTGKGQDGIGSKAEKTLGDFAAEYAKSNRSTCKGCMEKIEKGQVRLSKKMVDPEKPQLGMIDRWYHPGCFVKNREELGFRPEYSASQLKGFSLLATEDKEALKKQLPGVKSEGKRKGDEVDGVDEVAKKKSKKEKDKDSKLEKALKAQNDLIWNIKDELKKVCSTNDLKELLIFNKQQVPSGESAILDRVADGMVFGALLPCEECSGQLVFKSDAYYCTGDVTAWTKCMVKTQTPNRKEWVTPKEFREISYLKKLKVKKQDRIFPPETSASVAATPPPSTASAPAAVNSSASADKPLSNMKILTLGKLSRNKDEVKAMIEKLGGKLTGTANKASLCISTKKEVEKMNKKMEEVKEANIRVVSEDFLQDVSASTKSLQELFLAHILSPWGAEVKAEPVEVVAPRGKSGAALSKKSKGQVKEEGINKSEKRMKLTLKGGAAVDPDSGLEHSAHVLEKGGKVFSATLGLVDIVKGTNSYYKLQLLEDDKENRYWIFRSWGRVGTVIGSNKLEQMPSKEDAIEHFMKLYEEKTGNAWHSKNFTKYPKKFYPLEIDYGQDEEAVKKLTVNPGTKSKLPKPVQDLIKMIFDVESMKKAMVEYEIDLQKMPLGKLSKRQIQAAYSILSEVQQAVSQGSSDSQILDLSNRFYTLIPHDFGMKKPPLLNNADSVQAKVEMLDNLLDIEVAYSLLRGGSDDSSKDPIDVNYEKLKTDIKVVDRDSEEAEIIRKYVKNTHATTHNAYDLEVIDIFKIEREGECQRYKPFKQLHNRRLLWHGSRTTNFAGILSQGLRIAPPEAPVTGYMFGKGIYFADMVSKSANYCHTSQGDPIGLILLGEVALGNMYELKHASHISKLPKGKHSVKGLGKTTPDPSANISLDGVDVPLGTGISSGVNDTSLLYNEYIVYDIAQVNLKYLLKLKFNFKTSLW
# CT26 [4] = assay: Antitumor activity against mouse CT26 cells implanted in BALB/c mouse assessed as increase in infiltration of CD3 positive CD4 positive T lymphocytes in tumors at 100 mg/kg, po measured after 14 days by flow cytometry (reference value: 7.95%); type: functional; settings: time 14 day
# [5] = Initial plasma concentration in ICR mouse at 1 mg/kg, iv measured upto 24 hrs by LC-MS/MS analysis; type: ADME, organism-based
# [6] = Oral bioavailability in ICR mouse at 10 mg/kg measured upto 24 hrs by LC-MS/MS analysis; type: ADME, organism-based; settings: in vivo
# [7] = MRT(0 to infinity) in ICR mouse at 1 mg/kg, iv measured upto 24 hrs by LC-MS/MS analysis; type: ADME, organism-based; settings: in vivo
# [8] = Toxicity in BALB/c mouse implanted with mouse CT26 cells assessed as liver damage at 100 mg/kg, po measured for 14 days by hematoxylin and eosin staining based fluorescence microscopic analysis; type: organism-based; settings: in vivo, 336 h, time 14 day
# [9] = Cytotoxicity against mouse AML12 cells assessed as inhibition of cell growth measured after 6 days by MTT assay; type: toxicity, cell-based
# CT26 [10] = assay: Antitumor activity against mouse CT26 cells xenografted in BALB/c mouse assessed as tumor growth inhibition at 100 mg/kg, po bid measured for 14 days; type: functional; settings: CT26, 336 h, time 14 day, read-out: TGI
# [11] = Half life in ICR mouse at 10 mg/kg, po measured upto 24 hrs by LC-MS/MS analysis; type: ADME, organism-based; settings: in vivo
# [12] = Toxicity in BALB/c mouse implanted with mouse CT26 cells assessed as lung damage at 100 mg/kg, po measured for 14 days by hematoxylin and eosin staining based fluorescence microscopic analysis; type: organism-based; settings: in vivo, 336 h, time 14 day
# [13] = Apparent volume of distribution in ICR mouse at 1 mg/kg, iv measured upto 24 hrs by LC-MS/MS analysis; type: ADME, organism-based; settings: in vivo, read-out: Vz
# [14] = Tmax in ICR mouse at 1 mg/kg, iv measured upto 24 hrs by LC-MS/MS analysis; type: ADME, organism-based; settings: in vivo
# [15] = Tmax in ICR mouse at 10 mg/kg, po measured upto 24 hrs by LC-MS/MS analysis; type: ADME, organism-based; settings: in vivo
# [16] = Toxicity in BALB/c mouse implanted with mouse CT26 cells assessed as spleen damage at 100 mg/kg, po measured for 14 days by hematoxylin and eosin staining based fluorescence microscopic analysis; type: organism-based; settings: in vivo, 336 h, time 14 day
# [17] = Toxicity in BALB/c mouse implanted with mouse CT26 cells assessed as kidney damage at 100 mg/kg, po measured for 14 days by hematoxylin and eosin staining based fluorescence microscopic analysis; type: organism-based; settings: in vivo, 336 h, time 14 day
# [18] = AUC(0 to infinity) in ICR mouse at 1 mg/kg, iv measured upto 24 hrs by LC-MS/MS analysis; type: ADME, organism-based; design: time < 24 hrs, dose 1 mg/kg, route iv; settings: in vivo
# [19] = Half life in ICR mouse at 1 mg/kg, iv measured upto 24 hrs by LC-MS/MS analysis; type: ADME, organism-based; settings: in vivo
# [20] = Clearance in ICR mouse at 1 mg/kg, iv measured upto 24 hrs by LC-MS/MS analysis; type: ADME, organism-based; settings: in vivo
# [21] = AUC(0 to infinity) in ICR mouse at 10 mg/kg, po measured upto 24 hrs by LC-MS/MS analysis; type: ADME, organism-based; design: dose 10 mg/kg, time < 24 hrs, route po; settings: in vivo
# [22] = Clearance in ICR mouse at 10 mg/kg, po measured upto 24 hrs by LC-MS/MS analysis; type: ADME, organism-based; settings: in vivo
# [23] = MRT(0 to infinity) in ICR mouse at 10 mg/kg, po measured upto 24 hrs by LC-MS/MS analysis; type: ADME, organism-based; settings: in vivo
# [24] = Apparent volume of distribution in ICR mouse at 10 mg/kg, po measured upto 24 hrs by LC-MS/MS analysis; type: ADME, organism-based; settings: in vivo
# CT26 [25] = assay: Antitumor activity against mouse CT26 cells implanted in BALB/c mouse assessed as increase in infiltration of CD4 positive CD8 positive T lymphocytes in tumors at 100 mg/kg, po measured after 14 days by flow cytometry (reference value: 6.67%); type: functional; settings: time 14 day
structure (smiles),measurement,setting,value
C[C@@H](CN1CC(C(=O)N2CCN(c3ccc4c(c3)OC(F)(F)O4)CC2)C1)Nc1cn[nH]c(=O)c1C(F)(F)F,IC50,[1],19.4 nM
same,inhibition,[2],90%
C[C@@H](CN1CCC(C(=O)N2CCN(c3ncc(C(F)(F)F)cn3)CC2)C1)Nc1cn[nH]c(=O)c1C(F)(F)F (some centres undefined),IC50,[3],1130 nM
same,inhibition,[2],44.9%
C[C@@H](CN1CC(C(=O)N2CCN(c3ccc(C(F)(F)F)cc3)CC2)C1)Nc1cn[nH]c(=O)c1C(F)(F)F,inhibition,[2],32%
C[C@@H](CN1CC(C(=O)N2CCN(c3nccc(C(F)(F)F)n3)CC2)C1)Nc1cn[nH]c(=O)c1C(F)(F)F,inhibition,[2],65%
C[C@@H](CN1CC(C(=O)N2CCN(c3ncccn3)CC2)C1)Nc1cn[nH]c(=O)c1C(F)(F)F,inhibition,[2],18%
COc1cnc(N2CCN(C(=O)C3CN(C[C@H](C)Nc4cn[nH]c(=O)c4C(F)(F)F)C3)CC2)nc1,inhibition,[2],56%
C[C@@H](COCCC(=O)N1CCN(c2ncc(C(F)(F)F)cn2)CC1)Nc1cn[nH]c(=O)c1C(F)(F)F [ATAMPARIB],Activity,CT26 [4],48.2%
same,C0 at 24 h,[5],1230 ng/mL
same,bioavailability,[6],25.7%
same,MRT inf,[7],12 min
same,Activity,[8],Non-Toxic
same,IC50 at 6 days,[9],> 50 µM
same,inhibition in vivo at 100 mg/kg,CT26 [10],30%
same,t1/2,[11],54 min
same,Activity,[12],Non-Toxic
same,Vd,[13],0.872 L/kg
same,Tmax,[14],4.8 min
same,Tmax,[15],13.2 min
same,Activity,[16],Non-Toxic
same,Activity,[17],Non-Toxic
same,AUC,[18],256 ng·h/mL
same,t1/2,[19],9 min
same,clearance,[20],67 mL/min/kg
same,AUC,[21],656 ng·h/mL
same,CL/F,[22],259 mL/min/kg
same,MRT inf,[23],54 min
same,Vz,[24],19694 mL/kg
same,Activity,CT26 [25],19.1%
O=C(C1CN(CCNc2cn[nH]c(=O)c2C(F)(F)F)C1)N1CCN(c2ncc(C(F)(F)F)cn2)CC1,IC50,[1],39.3 nM
same,inhibition,[2],66.8%
C[C@@H](CN1CC(C(=O)N2CCN(c3cccc4c3oc3ccccc34)CC2)C1)Nc1cn[nH]c(=O)c1C(F)(F)F,inhibition,[2],35%
C[C@@H](CN1CCC(C(=O)N2CCN(c3ncc(C(F)(F)F)cn3)CC2)CC1)Nc1cn[nH]c(=O)c1C(F)(F)F,IC50,[3],> 5000 nM
same,inhibition,[2],33.6%
C[C@@H](CN1CC(C(=O)N2CCN(c3ccc(C(F)(F)F)cn3)CC2)C1)Nc1cn[nH]c(=O)c1C(F)(F)F,IC50,[1],14.5 nM
same,inhibition,[2],82%
C[C@@H](CN1CC(C(=O)N2CCN(c3ncc(-c4ccc(C(F)(F)F)cc4)cn3)CC2)C1)Nc1cn[nH]c(=O)c1C(F)(F)F,inhibition,[2],40%
C[C@@H](CN1CC(C(=O)N2C3CC2CN(c2ncc(C(F)(F)F)cn2)C3)C1)Nc1cn[nH]c(=O)c1C(F)(F)F,IC50,[1],116 nM
same,inhibition,[2],55.5%
O=C(C1CN(CC2(Nc3cn[nH]c(=O)c3C(F)(F)F)CC2)C1)N1CCN(c2ncc(C(F)(F)F)cn2)CC1,inhibition,[2],39.6%
C[C@@H](CN1CC(C(=O)NC2CN(c3ncc(C(F)(F)F)cn3)C2)C1)Nc1cn[nH]c(=O)c1C(F)(F)F,inhibition,[2],51%
CC1CN(c2ncc(C(F)(F)F)cn2)CC(C)N1C(=O)C1CN(C[C@H](C)Nc2cn[nH]c(=O)c2C(F)(F)F)C1 (some centres undefined),IC50,[1],110 nM
same,inhibition,[2],77%
C[C@@H](CN1CC(C(=O)N2CCN(c3ncc(S(C)(=O)=O)cn3)CC2)C1)Nc1cn[nH]c(=O)c1C(F)(F)F,IC50,[1],29.2 nM
same,inhibition,[2],95%
Cc1cnc(N2CCN(C(=O)C3CN(C[C@H](C)Nc4cn[nH]c(=O)c4C(F)(F)F)C3)CC2)nc1,IC50,[1],42.4 nM
same,inhibition,[2],51.4%
C[C@@H](CN1CC(C(=O)N2CCN(c3ncc(Br)cn3)CC2)C1)Nc1cn[nH]c(=O)c1C(F)(F)F,IC50,[1],11.1 nM
same,inhibition,[2],85.5%
C[C@@H](CN1CC(C(=O)N2CCN(c3ncc(Cl)cn3)CC2)C1)Nc1cn[nH]c(=O)c1C(F)(F)F,inhibition,[2],75.5%
C[C@@H](CN1CC(C(=O)N2CCN(c3ncc(F)cn3)CC2)C1)Nc1cn[nH]c(=O)c1C(F)(F)F,inhibition,[2],26%
C[C@@H](CN1CC(C(=O)N2CCN(c3ncc(C#N)cn3)CC2)C1)Nc1cn[nH]c(=O)c1C(F)(F)F,IC50,[1],34.5 nM
same,inhibition,[2],71.5%
